The structures appear in SMILES notation.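 Compound exposure: 48 hours, 5 concentrations, 96-well plates. GI50 = concentration required for 50% inhibition of growth.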 Activity calls are given as the source filed them. Rule as the data show it: active = GI50 up to about 1.1 µM and inactive = higher.

Among the test systems are A498; A549; HCC 2998; HL-60; HOP-62; K562; LOX IMVI; MOLT-4; SF-539; SK-MEL-28; SK-MEL-2; SR; U-251; UACC-62; UO-31; MCF7; MDA-MB-231; PC-3.
What all share (test): NCI-60 cell line screen, 48 h

Take `COC(=O)CC1NC(=O)[C@@H]1C(C)O` (some centres undefined): the GI50 with A498, with A549, in the assay with HCC 2998, with HL-60, with HOP-62 and in the assay on K562 was > 100 µM (inactive) each time. For the same compound, the GI50 with LOX IMVI, in the assay with MOLT-4, in the assay on SF-539, with SK-MEL-28, in the assay with SK-MEL-2 and in the assay with SR was > 100 µM (inactive) throughout. The GI50 with U-251, with UACC-62 and in the assay with UO-31 was > 100 µM (inactive) in each case.
On to `O=C1c2ccccc2C(=O)c2sc(Nc3ccc(Cl)cc3)nc21`, for which the GI50 was 16.1 µM (inactive) in the assay on A498; 8.63 µM (inactive) in the assay on A549; 4.32 µM (inactive) with HCC 2998; 0.1 µM (active) in the assay on HL-60; 4.68 µM (inactive) with HOP-62; 1.96 µM (inactive) with K562. The GI50 with LOX IMVI is 1.59 µM (inactive); with MOLT-4, 0.762 µM (active); in the assay with SF-539, 4.55 µM (inactive); in the assay with SK-MEL-28 it was 1.66 µM (inactive); in the assay on SK-MEL-2 it was 3.67 µM (inactive); in the assay on SR, 1.86 µM (inactive). The GI50 is 1.62 µM (inactive) with U-251, 1.85 µM (inactive) in the assay on UACC-62 and 3.35 µM (inactive) in the assay on UO-31.
On to `O=C1/C(=C/c2ccccc2)CCCC/C1=C\c1ccccc1`, for which the GI50 in the assay on A498 is > 100 µM (inactive); in the assay with A549, 41.7 µM (inactive); in the assay on HCC 2998, 48.5 µM (inactive); in the assay on HOP-62 it was > 100 µM (inactive); in the assay with LOX IMVI it was 53.7 µM (inactive); in the assay on MOLT-4, 27.7 µM (inactive). Besides, the GI50 in the assay with SF-539 is > 100 µM (inactive); in the assay on SK-MEL-28, > 100 µM (inactive); in the assay on SK-MEL-2, 47.9 µM (inactive); with SR, 12.8 µM (inactive); in the assay with U-251, 62.2 µM (inactive); in the assay on UACC-62 it was > 100 µM (inactive). Further, the GI50 in the assay on UO-31 was 55 µM (inactive).
With `CCC(O)(c1ccc(OC)cc1)C(c1ccc(OCc2ccccc2)cc1)c1ccc(OCc2ccccc2)cc1` (centres undefined), the GI50 in the assay with A498, with A549, in the assay on HCC 2998, with HL-60, in the assay with HOP-62 and with K562 was > 100 µM (inactive) in each case. The GI50 with LOX IMVI, with MOLT-4, with SF-539, in the assay on SK-MEL-28, in the assay on SK-MEL-2 and in the assay with SR was > 100 µM (inactive) throughout. The GI50 in the assay on U-251, in the assay on UACC-62 and with UO-31 was > 100 µM (inactive) in each case.
Take `CN(C)C(=S)/N=c1\ss/c(=N\C(=S)N(C)C)n1-c1ccc2c(c1)OCO2`: the GI50 is > 100 µM (inactive) in the assay with A498; > 100 µM (inactive) in the assay on A549; > 100 µM (inactive) in the assay with HCC 2998; 3.27 µM (inactive) in the assay with HL-60; > 100 µM (inactive) in the assay with HOP-62; 4.86 µM (inactive) in the assay on K562. Moreover, the GI50 in the assay on LOX IMVI, in the assay on SF-539, with SK-MEL-28, in the assay with SK-MEL-2, with SR and in the assay with U-251 was > 100 µM (inactive) throughout. Further, the GI50 is 5.56 µM (inactive) with UACC-62 and > 100 µM (inactive) in the assay on UO-31.
Take `COC(=O)C(Cc1nc2ccc(Cl)cc2nc1O)C(=O)C(=O)Nc1ccccc1[N+](=O)[O-]` (centres undefined): the GI50 in the assay with A498, with A549, in the assay with HCC 2998, in the assay with HL-60, in the assay on HOP-62 and with K562 was > 100 µM (inactive) throughout. The GI50 with LOX IMVI, with MOLT-4, with SF-539, in the assay with SK-MEL-28, in the assay with SK-MEL-2 and with SR was > 100 µM (inactive) each time. Besides, the GI50 in the assay with U-251, with UACC-62 and in the assay on UO-31 was > 100 µM (inactive) in each case.
As for `COC1[C@@H](OC(C)=O)[C@@H](NC(=O)C(Cl)(Cl)Cl)C(I)[C@@H](N2C(=O)c3ccccc3C2=O)[C@H]1OC` (some centres undefined), the GI50 in the assay on A498 is 48.6 µM (inactive); in the assay with A549, > 100 µM (inactive); in the assay with HL-60 it was > 100 µM (inactive); with HOP-62, > 100 µM (inactive); with K562, > 100 µM (inactive); in the assay with LOX IMVI, > 100 µM (inactive). Also, the GI50 in the assay with MOLT-4 was > 100 µM (inactive); with SF-539 it was 50.2 µM (inactive); with SK-MEL-28 it was > 100 µM (inactive); in the assay with SR it was > 100 µM (inactive); in the assay with U-251, > 100 µM (inactive); in the assay with UACC-62, > 100 µM (inactive).
For the compound `COC(=O)c1nn(C(=N)c2ccc(Cl)cc2)c2c1CCC2`, the GI50 with A498, in the assay with A549, in the assay with HCC 2998, with HL-60, in the assay with HOP-62 and in the assay on K562 was > 100 µM (inactive) in each case. In addition, the GI50 in the assay with LOX IMVI was > 100 µM (inactive); with MOLT-4 it was > 100 µM (inactive); in the assay on SF-539 it was > 100 µM (inactive); in the assay on SK-MEL-28 it was > 100 µM (inactive); with SK-MEL-2, > 100 µM (inactive); with SR, 14.7 µM (inactive). The GI50 in the assay on U-251, in the assay with UACC-62 and in the assay with UO-31 was > 100 µM (inactive) throughout.
Turning to `Cc1ccccc1NC(=O)C(=O)CC(=O)c1sc(-n2nc(-c3ccccc3)cc2-c2ccccc2)nc1C`, the GI50 in the assay on A498, in the assay on A549, with HCC 2998, with HL-60, in the assay on HOP-62 and in the assay with K562 was > 100 µM (inactive) in each case. The GI50 in the assay on LOX IMVI, in the assay with MOLT-4, in the assay with SF-539, in the assay with SK-MEL-2, with SR and in the assay on U-251 was > 100 µM (inactive) in each case. Also, the GI50 with UACC-62 and in the assay on UO-31 was > 100 µM (inactive) in each case.
`CCOC(=O)[C@@]12C3C=CC(CC3)[C@]1(C(=O)c1ccccc1)C(=O)C(=O)N2c1ccccc1` (some centres undefined): the GI50 with A498, in the assay on A549, with HCC 2998, in the assay with HOP-62, in the assay with K562 and in the assay on MCF7 was > 100 µM (inactive) throughout. For the same compound, the GI50 in the assay with MDA-MB-231, with MOLT-4, in the assay with PC-3, with SF-539, in the assay on SK-MEL-28 and in the assay with SK-MEL-2 was > 100 µM (inactive) in each case. Also, the GI50 in the assay on SR was > 100 µM (inactive); with U-251, > 100 µM (inactive); in the assay on UACC-62 it was 97.3 µM (inactive); in the assay on UO-31, > 100 µM (inactive).
For the compound `O=C(N/C(=C\c1cccc([N+](=O)[O-])c1)c1nc2c(O)nc(S)nc2[nH]1)c1ccccc1`, the GI50 is > 100 µM (inactive) with A498; > 100 µM (inactive) in the assay on A549; > 100 µM (inactive) in the assay with HCC 2998; 69.3 µM (inactive) with HL-60; > 100 µM (inactive) in the assay with HOP-62; > 100 µM (inactive) in the assay on K562. Besides, the GI50 with LOX IMVI is > 100 µM (inactive); with MOLT-4 it was 94.4 µM (inactive); with SF-539, > 100 µM (inactive); with SK-MEL-28, > 100 µM (inactive); in the assay on SK-MEL-2, > 100 µM (inactive); with SR, > 100 µM (inactive). For the same compound, the GI50 with U-251 is > 100 µM (inactive); in the assay with UACC-62 it was > 100 µM (inactive); in the assay on UO-31, 24.5 µM (inactive).
Consider `C=CCC1(CN(C)C)CC/C(=C\c2ccc3c(c2)OCO3)C1=O` (centres undefined), for which the GI50 in the assay on A498 was 33.7 µM (inactive); in the assay on A549, 74.1 µM (inactive); with HCC 2998, 37.3 µM (inactive); in the assay on HL-60, 4.32 µM (inactive); with HOP-62, > 100 µM (inactive); in the assay with K562, 32.7 µM (inactive). Besides, the GI50 is 97.1 µM (inactive) in the assay with LOX IMVI; 27.3 µM (inactive) in the assay on MOLT-4; 88.9 µM (inactive) in the assay on SF-539; > 100 µM (inactive) with SK-MEL-28; > 100 µM (inactive) in the assay with SK-MEL-2; 41 µM (inactive) with SR. In addition, the GI50 was 52.1 µM (inactive) with U-251, 68.4 µM (inactive) with UACC-62 and 45 µM (inactive) with UO-31.
Consider `COC(=O)CC(NC(=O)OCc1ccccc1)C(C(C)=O)C(=O)OCc1ccccc1` (centres undefined), for which the GI50 is > 31.6 µM (inactive) in the assay on A498; > 31.6 µM (inactive) with A549; > 10 µM (inactive) in the assay with HCC 2998; > 31.6 µM (inactive) in the assay with HL-60; > 10 µM (inactive) with HOP-62; > 31.6 µM (inactive) with K562. Moreover, the GI50 in the assay with LOX IMVI was > 100 µM (inactive); in the assay on MOLT-4 it was > 31.6 µM (inactive); in the assay with SF-539, > 31.6 µM (inactive); in the assay on SK-MEL-28, > 31.6 µM (inactive); in the assay with SK-MEL-2, > 10 µM (inactive); in the assay with SR, > 100 µM (inactive). Moreover, the GI50 in the assay with U-251, in the assay with UACC-62 and in the assay with UO-31 was > 31.6 µM (inactive) in each case.
